# Test results published in patent US9820923B2, “Succinate derivatives” (Symrise AG, priority 2013, dated 2017).
# pIC50: −log10 of the molar value.
# What was measured:
# [1] = test system: Primary human dermal fibroblasts; experiment: Cellular in vitro DCF assay (intracellular ROS); assay type: cell-based; set-up: unit of the concentration uncertain
# Procedure: Primary human dermal fibroblasts (Lonza) are disseminated in a 96-well microtiter plate in a concentration of 1×10^4 cells/well (DMEM, 10% FKS). After cultivation in fully enriched medium (DMEM, 10% FCS) for 24 h at 37° C. and 5% CO2, the serum content was reduced to 0.1% for further 24 h to synchronize the cell cycle. Confluence was supposed to be around 70% at the time, the incubation with the test substances began. Various concentrations of the test substances, two backgrounds (untreated cells), control (possible with solvent) and Trolox as internal standard (1000 μM) were applied to the cells in DMEM and incubated for further 18-20 h. […], 100 μl H2DCF-DA-solution (2,7-Dichlorfluorescein, 10 μM) incl. DAPI (1:1000) was added to all samples (excluded the background-control) and incubated for one hour to de-esterify the H2DCF-DA by cellular esterases. The resulting H2DCF was thereby trapped inside the cell. After the incubation, the cells were washed and the prooxidant challenge was set (1 mM, 1 h). The resulting fluorescence was read at Ex 504 nm; Em 524 nm. An increased level of ROS (reactive oxygen species) led to an increased amount of fluorescence.
# Results are mean values from 2 independent experiments with quadruple determinations each.
# The inhibition of the oxidation in the presence of test substances was calculated according to the following equation: […]
# The abbreviations have the following meanings: • RFU DAPI: Relative fluorescence units (Ex 380/20, Em 440/40) of the wells with test substance, DAPI and DCF treatment, with cells • RFU DCF: Relative fluorescence units (Ex 485/20, Em 528/20) of the wells with test substance, DAPI and DCF treatment, with cells • RFU control: Relative fluorescence units of the wells without test substance, DAPI and DCF treatment, with cells (The control was calculated like the other samples.) • RFU BLANK: Relative fluorescence units of the wells without test substance, without DAPI and DCF treatment but with cells
# [2] = test system: HHFSC (Human Hair Follicle Stem Cells); experiment: Cellular in vitro stem cell protection assay (UVB-induced apoptosis, caspase 3/7); assay type: cell-based; details: light or radiation study, 25 mJ/cm^2 UVB, read-out: Inhibition of UV induced apoptosis [%]
# Procedure: HHFSC (Human Hair Follicle Stem Cells) isolated from hair follicle bulge (Celprogen) were cultivated in culture ware pre-coated with Human Hair Follicle Stem Cell Extra-cellular Matrix (Celprogen). The cells were incubated 2 h prior to and 16 h after UVB irradiation with test compounds. Cells were irradiated with 25 mJ/cm^2 UVB in the presence of buffer solution. Apoptosis induction was evaluated by caspase 3/7 protein expression (Caspase-Glo 3/7, Promega) and quantified by chemiluminescence measurement.
# The inhibition of apoptosis induction in the presence of test substances was calculated according to the following equation: […]
# The abbreviations have the following meanings: • RLU test substance: • RLU of the wells with test substance and with UVB irradiation • RLU control: • RLU of the wells without test substance, but with UVB irradiation • RLU control without UVB: • RLU of the wells without test substance and without UVB irradiation
# Heme Oxygenase-1 = experiment: Cellular in vitro heme oxygenase-1 expression assay on NHDF (Western blot); assay type: cell-based, human; details: 24 h, 0.0134% b.w.
# Procedure: NHDF (normal human dermal fibroblasts) cells were disseminated in a 6-well plate in a concentration of 2×10^5 cells/well (DMEM, 10% FCS). After cultivation in fully enriched medium (DMEM, 10% FCS) for 72 h at 37° C. and 5% CO2, the serum content was reduced to 0.1% to synchronize the cell cycle. Various concentrations of the test substances, the negative control (untreated cells) and tert. butylhydrochinon as positive control, are added and incubated for a further 24 h. The maximum concentration of the test substances used corresponds to 0.2 times the value of the IC20 of the cytotoxicity assay. After cell lysis, the protein amount was determined using the Biorad BCA assay. All samples were adjusted to the same protein level before application on a fast Criterion Gel (Biorad) to perform electrophoresis for 20 minutes at 300 V. Thereafter the proteins were transferred to a PVDF membrane on a semi-dry blotter (30 minutes, 25 V). The blotted membrane is blocked for 4 hours in a 5% milk powder solution in TBST at 4° C. After washing, the membrane is incubated with the first antibody solution HO-1 from abcam (1:500 in 1% milk powder in TBST) over night. […] The resulting band pattern is detected with a chemiluminescence sensitive camera system (Vil-ber Loumat). The quantification was done by densitometry, using the Image J freeware software.
# Hyaluronic acid = experiment: Cellular in vitro hyaluronic acid assay on NHDF (competitive ELISA); assay type: cell-based, human; details: 72 h
# Procedure: NHDF (normal human dermal fibroblasts) cells were disseminated in a 96-well microtiter plate in a concentration of 2×10^4 cells/well (DMEM, 10% FCS). After cultivation in fully enriched medium (DMEM, 10% FCS) for 72 h at 37° C. and 5% CO2, the serum content was reduced to 0.1% to synchronize the cell cycle and incubated for further 24 h. Various concentrations of the test substances and TGF-beta1 as internal standard are added and incubated for 72 h. The maximum concentration of the test substances used corresponds to 0.2 times the value of the IC20 of the cytotoxicity assay. Hyaluronic acid is quantified by a competitive ELISA (TECOmedical TE1017).
# The percent bound for each standard and unknown substance is calculated using the following equation: […]
# A standard curve is generated by plotting the aborptions of the given concentrations in a linear proportion. The gradient of the line is determined and the value of the substances calculated as follows: • 1. value=1/RFU • 2. value=((1. value)−b)/m) • Compound of Hyaluronic acid [ng/ml]=2. value*dilution
# [3] = test system: B16V mouse melanoma cells; experiment: Depigmentation effect on melanoma cell cultures; assay type: cell-based; details: 0.6 mM tyrosine and 10 nM MSH, 96 h, read-out: IC50 (Inhibition of pigmentation)
# Procedure: B16V mouse melanoma cells are disseminated in a 96-well micro-titre plate in a concentration of 7.5×10^3 cells/well. After cultivation for 24 h at 37° C. and 5% CO2 in RPMI medium, enriched with 10% foetal calf serum, various concentrations of the test substances and 0.6 mM tyrosine and 10 nM-MSH (-melanocyte stimulating hormone) are added and incubated for a further 96 h. The maximum concentration of the test substances used corresponds to 0.1 times the value of the IC20 value of the cytotoxicity assay. Only tyrosine and -MSH are added to the controls. After incubation, sodium hydroxide solution (final concentrations: 1 M) is added to the culture medium and the absorption (A) is measured after 3 h at 400 nm.
# The inhibition of pigmentation in the presence of the test compounds was calculated using the following equation: Inhibition of pigmentation (%)=100−[(Atest compound/Acontrol)×100] wherein • Atest compound=absorption of the wells with test substance and with cells • Acontrol=absorption of the wells without test substance, but with cells
# From the inhibition of pigmentation (%) in a series of dilutions of test compounds, the IC50 for each test compound is calculated. This is the concentration of a test compound at which pigmentation is inhibited by 50%.
structure (smiles),measurement,setting,value
CC1CC(OC(=O)CCC(=O)N(C)C)CC(C)(C)C1 (stereo not shown) [S7a/S7b**],Intracellular ROS reduction [%],[1]; concentration 1 (unit uncertain),−2%
same,Intracellular ROS reduction [%],[1]; concentration 10 (unit uncertain),11%
same,Intracellular ROS reduction [%],[1]; concentration 50 (unit uncertain),16.3%
same,Intracellular ROS reduction [%],[1]; concentration 100 (unit uncertain),19.5%
same,inhibition at 20 µM,[2]; 0.02 mM,5%
same,inhibition at 200 µM,[2]; 0.20 mM,32%
same,Up-regulation (HO1-Amount relative to control),Heme Oxygenase-1,14.5-fold
same,Stimulation (Hyaluronic acid stimulation relative to control),Hyaluronic acid; 0.00012 % b.w.,34.4%
same,Stimulation (Hyaluronic acid stimulation relative to control),Hyaluronic acid; 0.00120 % b.w.,67.3%
same,pIC50,[3],4.74
